Where two headings read alike, the source gives them in different places.
Columns and labels:
[1] = tested on: recombinant (R)-2,3-butanediol dehydrogenase, HB101 (pSE-PAD1) cell extract; experiment: Substrate specificity of recombinant enzyme, oxidation reaction; format: biochemical, Pichia angusta; conditions: for HB101 (pSE-PAD1) Relative activity: glycerol = 100%
Protocol: The quantification of polypeptide is carried out by a dye-binding method using a protein assay kit from BioRad.
(§1) The bacterial cells were collected by centrifugal separation and then suspended in 100 mM potassium phosphate buffer (pH 8.0) containing 0.02% 2-mercaptoethanol; the bacterial cells were lysed by the treatment with a closed sonic chamber device UCD-200TM (Cosmo Bio) for 4 minutes. The bacterial cell lysate was separated by centrifugation and the resulting supernatant was recovered as a bacterial cell extract.

[2] = tested on: E. coli HB101 cell-free extract prepared in the absence of plasmid; format: biochemical
Protocol: as §1

[3] = biological target: glycerol dehydrogenase produced by Escherichia coli (Escherichia coli W-1485) (Escherichia coli, UniProt P0A9S5); conditions: J. Biol. Chem., 259:2124-2129, 1984; cited from earlier work
[4] = biological target: (R)-2,3-butanediol dehydrogenase derived from Saccharomyces cerevisiae (Saccharomyces cerevisiae, UniProt P39714); conditions: Arch. Microbiol., 154:267-273, 1990; cited from earlier work
[5] = tested on: (R)-2,3-butanediol dehydrogenase; experiment: Substrate specificity of purified (R)-2,3-butanediol dehydrogenase (dehydrogenation activity); format: biochemical, Pichia angusta; conditions: substrate 500 mM; glycerol dehydrogenation activity with NAD+ as coenzyme taken as 100; ND: not detectable
Protocol: The enzyme obtained in Example 1 was allowed to react with various reagents of 500 mM, and then the dehydrogenation activity was assayed.

[6] = tested on: (R)-2,3-butanediol dehydrogenase; experiment: Behavior of (R)-2,3-butanediol dehydrogenase to reagents (residual glycerol dehydrogenase activity); format: biochemical, Pichia angusta; conditions: for Inhibition of the enzyme by reagent (in words): treated at 30° C. for 10 minutes
Protocol: After treated with various reagents at 30° C. for 10 minutes, glycerol dehydrogenase activity was assayed.

[7] = tested on: recombinant (R)-2,3-butanediol dehydrogenase, HB101 (pSE-PAD1) cell extract; experiment: Substrate specificity of recombinant enzyme, reduction reaction; format: biochemical, Pichia angusta; conditions: substrate 20 mM; for HB101 (pSE-PAD1) Relative activity: dihydroxyacetone = 100%
Protocol: as §1

[8] = tested on: E. coli HB101 cell-free extract prepared in the absence of plasmid; experiment: Host only cell-free extract, reduction reaction; format: biochemical; conditions: substrate 20 mM
Protocol: as §1

[9] = tested on: (R)-2,3-butanediol dehydrogenase; experiment: Stereoselectivity of purified (R)-2,3-butanediol dehydrogenase; format: biochemical, Pichia angusta
Protocol: The enzyme obtained in Example 1 was allowed to react with each of the two isomers 1,2-propanediol and 2,3-butanediol (500 mM each).

[10] = tested on: (R)-2,3-butanediol dehydrogenase derived from Pichia angusta; experiment: Coenzyme usability; format: biochemical; conditions: NADP+ in oxidation reaction, NADPH in reduction reaction
Source text: However, regardless of the usability of NADP^+ and NADPH, an enzyme having the above-mentioned physicochemical properties (1) to (3), preferably (1) to (6), and even more preferably (1) to (9) is included in the present invention.

[11] = oxidation reaction, substrate 100 mM
[12] = reagent 1 mM, 30° C. for 10 minutes, glycerol dehydrogenase activity
[13] = oxidation reaction, substrate 50 mM

Sequence of glycerol dehydrogenase produced by Escherichia coli (Escherichia coli W-1485) (P0A9S5 whole entry): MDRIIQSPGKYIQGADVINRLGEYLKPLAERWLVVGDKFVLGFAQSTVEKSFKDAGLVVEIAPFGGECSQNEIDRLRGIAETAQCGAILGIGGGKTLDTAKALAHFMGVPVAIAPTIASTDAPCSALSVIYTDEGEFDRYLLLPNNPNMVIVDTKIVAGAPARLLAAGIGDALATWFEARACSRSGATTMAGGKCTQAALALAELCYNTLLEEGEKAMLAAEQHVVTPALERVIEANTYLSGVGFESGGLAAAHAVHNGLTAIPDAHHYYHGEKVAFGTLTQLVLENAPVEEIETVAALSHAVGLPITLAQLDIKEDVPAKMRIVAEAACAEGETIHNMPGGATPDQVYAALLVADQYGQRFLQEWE
Sequence of (R)-2,3-butanediol dehydrogenase derived from Saccharomyces cerevisiae (P39714 whole entry): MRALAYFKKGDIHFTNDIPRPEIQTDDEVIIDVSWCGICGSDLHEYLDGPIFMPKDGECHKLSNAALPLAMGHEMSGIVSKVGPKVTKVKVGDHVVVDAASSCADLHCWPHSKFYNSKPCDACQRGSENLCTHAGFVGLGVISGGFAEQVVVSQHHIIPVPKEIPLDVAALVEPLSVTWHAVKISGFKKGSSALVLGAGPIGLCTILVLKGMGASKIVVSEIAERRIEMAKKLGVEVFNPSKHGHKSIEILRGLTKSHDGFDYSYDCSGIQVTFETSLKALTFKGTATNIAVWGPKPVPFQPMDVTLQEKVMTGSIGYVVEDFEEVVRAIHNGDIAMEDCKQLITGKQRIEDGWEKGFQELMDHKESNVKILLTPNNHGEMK

## CCC(O)CO (racemic) [(RS)-1,2-butanediol]
[1]; substrate 100 mM
  HB101 (pSE-PAD1) activity: 0.200 U/mg
  HB101 (pSE-PAD1) Relative activity: 87.6%
[2]; [11]
  Host only activity: 0.002 U/mg

## CC(O)C(C)O (racemic) [DL-2,3-butanediol]
[3]
  Vmax: 21.2 U/mg protein
[4]
  dehydrogenase activity: about 20.3 U/mg protein

## CCC(O)CO (centres unmarked) [1,2-butanediol]
[5]
  Relative activity: 130%

## CC(O)CO (centres unmarked) [1,2-propanediol]
[5]
  Relative activity: 700%

## CC(O)CCO (centres unmarked) [1,3-butanediol]
[5]
  Relative activity: 58%

## c1ccc(-c2ccccn2)nc1 [2,2′-dipyridyl]
[6]; [12]
  Residual activity: 0%
[6]
  Inhibition of the enzyme by reagent (in words): markedly inhibited

## CC(O)C(C)O (centres unmarked) [2,3-butanediol]
[5]
  Relative activity: 3030%

## CC(=O)C(C)=O [2,3-butanedion]
[7]
  HB101 (pSE-PAD1) activity: 1.906 U/mg
  HB101 (pSE-PAD1) Relative activity: 195%
[8]
  Host only activity: 0.018 U/mg

## CCC(C)=O [2-butanone]
[7]
  HB101 (pSE-PAD1) activity: 0.008 U/mg
  HB101 (pSE-PAD1) Relative activity: 0.8%
[8]
  Host only activity: 0.002 U/mg

## CC(=O)C(C)O (centres unmarked) [3-hydroxy-2-butanone]
[1]; substrate 50 mM
  HB101 (pSE-PAD1) activity: 0.020 U/mg
  HB101 (pSE-PAD1) Relative activity: 8.8%
[7]
  HB101 (pSE-PAD1) activity: 0.696 U/mg
  HB101 (pSE-PAD1) Relative activity: 71.2%
[2]; [13]
  Host only activity: 0.006 U/mg
[8]
  Host only activity: 0.009 U/mg

## CC(=O)CCO [4-hydroxy-2-butanone]
[7]
  HB101 (pSE-PAD1) activity: 0.011 U/mg
  HB101 (pSE-PAD1) Relative activity: 1.1%
[8]
  Host only activity: 0.006 U/mg

## C[C@@H](O)[C@@H](C)O [(2R,3R)-2,3-butanediol]
[1]; substrate 50 mM
  HB101 (pSE-PAD1) activity: 1.414 U/mg
  HB101 (pSE-PAD1) Relative activity: 620%
[2]; [13]
  Host only activity: 0 U/mg
[3]
  Vmax: 28.0 U/mg protein

## C[C@H](O)[C@H](C)O [(2S,3S)-2,3-butanediol]
[1]; substrate 50 mM
  HB101 (pSE-PAD1) activity: 0.059 U/mg
  HB101 (pSE-PAD1) Relative activity: 26.1%
[2]; [13]
  Host only activity: 0 U/mg

## C[C@@H](O)CO [(R)-1,2-propanediol]
[9]
  Relative activity: 2000%
[1]; substrate 50 mM
  HB101 (pSE-PAD1) activity: 1.077 U/mg
  HB101 (pSE-PAD1) Relative activity: 473%
[2]; [13]
  Host only activity: 0 U/mg

## C[C@@H](O)CCO [(R)-1,3-butanediol]
[1]; substrate 50 mM
  HB101 (pSE-PAD1) activity: 0.259 U/mg
  HB101 (pSE-PAD1) Relative activity: 114%
[2]; [13]
  Host only activity: 0 U/mg

## C[C@@H](O)CO [(R)-2,3-propanediol]
[9]
  Relative activity: 6100%

## OC[C@@H](O)CCl [(R)-3-chloro-1,2-propanediol]
[1]; substrate 50 mM
  HB101 (pSE-PAD1) activity: 0.002 U/mg
  HB101 (pSE-PAD1) Relative activity: 0.9%
[2]; [13]
  Host only activity: 0 U/mg

## C[C@H](O)CO [(S)-1,2-propanediol]
[9]
  Relative activity: 400%
[1]; substrate 50 mM
  HB101 (pSE-PAD1) activity: 0.246 U/mg
  HB101 (pSE-PAD1) Relative activity: 108%
[2]; [13]
  Host only activity: 0 U/mg

## C[C@H](O)CCO [(S)-1,3-butanediol]
[1]; substrate 50 mM
  HB101 (pSE-PAD1) activity: 0.042 U/mg
  HB101 (pSE-PAD1) Relative activity: 18.3%
[2]; [13]
  Host only activity: 0 U/mg

## C[C@H](O)CO [(S)-2,3-propanediol]
[9]
  Relative activity: 160%

## OC[C@H](O)CCl [(S)-3-chloro-1,2-propanediol]
[1]; substrate 50 mM
  HB101 (pSE-PAD1) activity: 0.057 U/mg
  HB101 (pSE-PAD1) Relative activity: 24.8%
[2]; [13]
  Host only activity: 0.001 U/mg

## O=C(O)c1cc(SSc2ccc([N+](=O)[O-])c(C(=O)O)c2)ccc1[N+](=O)[O-] [DTNB, 5,5′-dithiobis (2-nitrobenzoic acid)]
[6]; [12]
  Residual activity: 59%

## O=C(O)CN(CCN(CC(=O)O)CC(=O)O)CC(=O)O [EDTA, ethylenediaminetetraacetic acid]
[6]; [12]
  Residual activity: 93%
[6]
  Inhibition of the enzyme by reagent (in words): not

## OCC(O)CO [Glycerol]
[5]
  Relative activity: 100%
[9]; substrate 500 mM, activity to glycerol taken as 100
  Relative activity: 100%
[1]; substrate 100 mM
  HB101 (pSE-PAD1) activity: 0.228 U/mg
  HB101 (pSE-PAD1) Relative activity: 100%
[2]; [11]
  Host only activity: 0 U/mg

## CC(=O)CO [Hydroxyacetone]
[7]
  HB101 (pSE-PAD1) activity: 0.364 U/mg
  HB101 (pSE-PAD1) Relative activity: 37.2%
[8]
  Host only activity: 0 U/mg

## CC(O)C(C)O (stereo not drawn) [Meso-2,3-butanediol]
[1]; substrate 50 mM
  HB101 (pSE-PAD1) activity: 1.163 U/mg
  HB101 (pSE-PAD1) Relative activity: 509%
[2]; [13]
  Host only activity: 0 U/mg

## NC(=O)C1=CN([C@@H]2O[C@H](COP(=O)(O)OP(=O)(O)OC[C@H]3O[C@@H](n4cnc5c(N)ncnc54)[C@H](OP(=O)(O)O)[C@@H]3O)[C@@H](O)[C@H]2O)C=CC1 [NADPH]
[10]
  Usability as a coenzyme (in words): substantially impossible

## NC(=O)c1ccc[n+]([C@@H]2O[C@H](COP(=O)([O-])OP(=O)(O)OC[C@H]3O[C@@H](n4cnc5c(N)ncnc54)[C@H](OP(=O)(O)O)[C@@H]3O)[C@@H](O)[C@H]2O)c1 [NADP^+]
[10]
  Usability as a coenzyme (in words): substantially impossible

## O=C(O)c1cc[c]([Hg][Cl])cc1 [PCMB, p-chloromercuribenzoic acid]
[6]; reagent 0.1 mM, 30° C. for 10 minutes, glycerol dehydrogenase activity
  Residual activity: 0%
[6]
  Inhibition of the enzyme by reagent (in words): markedly inhibited

## NNc1ccccc1 [Phenylhydrazine]
[6]; [12]
  Residual activity: 110%

## [Ba+2].[Cl-].[Cl-] [barium chloride]
[6]
  Residual activity: 112%

## [Ca+2].[Cl-].[Cl-] [calcium chloride]
[6]
  Residual activity: 105%

## [Cl][Co][Cl] [cobalt chloride]
[6]; [12]
  Residual activity: 102%

## [Cl][Cu][Cl] [copper chloride]
[6]; [12]
  Residual activity: 0%
[6]
  Inhibition of the enzyme by reagent (in words): markedly inhibited

## O=C(O)CI [iodoacetic acid]
[6]
  Residual activity: 91%

## [Cl][Fe][Cl] [iron (II) chloride]
[6]; [12]
  Residual activity: 163%

## [Cl][Fe]([Cl])[Cl] [iron (III) chloride]
[6]; [12]
  Residual activity: 0%
[6]
  Inhibition of the enzyme by reagent (in words): markedly inhibited

## [Cl-].[Li+] [lithium chloride]
[6]; [12]
  Residual activity: 101%

## [Cl-].[Cl-].[Mg+2] [magnesium chloride]
[6]
  Residual activity: 105%

## [Cl][Hg][Cl] [mercury chloride]
[6]; [12]
  Residual activity: 0%
[6]
  Inhibition of the enzyme by reagent (in words): markedly inhibited

## [Cl][Ni][Cl] [nickel chloride]
[6]
  Residual activity: 99%

## c1cnc2c(c1)ccc1cccnc12 [o-phenanthroline]
[6]; [12]
  Residual activity: 0%
[6]
  Inhibition of the enzyme by reagent (in words): markedly inhibited

## [Cl-].[Cl-].[Zn+2] [zinc chloride]
[6]
  Residual activity: 113%

## (R)-1-amino-2-propanol
[1]; substrate 50 mM
  HB101 (pSE-PAD1) activity: 0.051 U/mg
  HB101 (pSE-PAD1) Relative activity: 22.2%
[2]
  Host only activity: 0.007 U/mg

## (R)-2-butanol
[1]; substrate 50 mM
  HB101 (pSE-PAD1) activity: 0.022 U/mg
  HB101 (pSE-PAD1) Relative activity: 9.6%
[2]
  Host only activity: 0 U/mg

## (S)-1-amino-2-propanol
[1]; substrate 50 mM
  HB101 (pSE-PAD1) activity: 0.018 U/mg
  HB101 (pSE-PAD1) Relative activity: 8.0%
[2]
  Host only activity: 0.007 U/mg

## (S)-2-butanol
[1]; substrate 50 mM
  HB101 (pSE-PAD1) activity: 0.024 U/mg
  HB101 (pSE-PAD1) Relative activity: 10.7%
[2]
  Host only activity: 0 U/mg

## manganese chloride
[6]
  Residual activity: 105%
